Test results as given in US20130316963A1, “INNATE DEFENCE REGULATORY PEPTIDE COMPOSITIONS FOR TREATMENT OF ARTHRITIS” (UNIVERSITY OF MANITOBA, priority 2010, published 2013).

Test system: human FLS cells
Experiment: Cytokine and chemokine production in human FLS cell supernatants (BD Cytometric Bead Array)
Assay type: cell-based
Protocol: Tissue culture supernatants were harvested after stimulation of human FLS cells with various cytokines (as indicated) with and without IDR peptides after 24 hr. The supernatants were centrifuged at 1500×g for 7 min to obtain cell-free samples. The samples were aliquoted and stored at −20° C. until further use. Production of MMP-3 in the tissue culture supernatants was monitored using Quantikine® human MMP-3 (total) ELISA kit (Quantikine is a registered trademark of R&D Systems, Inc. Minneapolis, Minn., USA) as per the manufacturer's instructions. Production of pro-inflammatory cytokines IL-1β, IL-6, IL-10, TNF, IL-12p70 and chemokines IL-8, RANTES, MIG, MCP-1, IP-10 in the tissue culture supernatants was determined using preconfigured multiplex BD Cytometric Bead Array (CBA) human inflammation and chemokine kits respectively, employing the FACS Calibur flow cytometer (BD Biosciences, Mississauga, ON, Canada) as per the manufacture's instructions. The concentration of the cytokines or chemokines in the tissue culture supernatants was evaluated by establishing a standard curve with serial dilutions of the recombinant human cytokines or chemokines as required.
To evaluate whether IDR-1002 alone could induce inflammatory responses, human FLS cells were stimulated with IDR-1002 (100 μg/ml) for 24 hr. BD Cytometric Bead Array (CBA) preconfigured human inflammation (IL-8, IL-1β, IL-6, IL-10, TNF, IL-12p70) kit was used to evaluate protein secretion of the various analytes in the tissue culture supernatants employing FACS Calibur flow cytometer.
IL-1β-induced protein profiles (proteome) in the presence and absence of IDR-1002 were evaluated using quantitative proteomics iTRAQ® tools employing different isobaric tags. Human FLS cells were treated with IDR-1002 (100 μg/ml) for 45 min prior to IL-1β (10 ng/ml) stimulation for 24 hr. Tissue culture supernatants were monitored for protein production of MMP-3 and chemokines IL-8 and MCP-1 production, in order to evaluate the validity of the assay before processing the cell lysates for quantitative proteomic evaluation. MMP-3 production was monitored in the tissue culture supernatants by ELISA, and chemokines IL-8 and MCP-1 production were evaluated by BD preconfigured human chemokine Cytometric Bead Array.

## VQRWLIVWRIRK (IDR-1002 peptide)
IDR-1002 100 μg/ml alone, 24 hr
  IL-10 and IL-12p70 in supernatants by flow cytometry: could not be detected
IDR-1002 100 μg/ml for 45 min prior to IL-1β 10 ng/ml, 24 hr, FIG. 2B
  suppression of IL-1β-induced chemokine MCP-1 production: > 60%
IDR-1002 100 μg/ml for 45 min prior to IL-1β 10 ng/ml, 24 hr, FIG. 2C
  suppression of IL-1β-induced chemokine IL-8 production: 20%
IDR-1002 100 μg/ml, 24 hr, vs un-stimulated control cells, data not shown
  release of pro-inflammatory cytokines TNF-α, IL-1β or IL6 by peptide alone: did not induce
IDR-1002 alone, human FLS
  chemokine production induced by peptide by itself in FLS: did not induce chemokine production by itself
